{
  "source": "patent US12569475B2",
  "about": "“Method for eradicating helicobacter pylori infection in patients regardless of body mass index” (RedHill Biopharma Ltd., priority 2020, dated 2026)",
  "origin": "cited, not measured here",
  "note": "Structures can show the parent of a compound that is named as a salt. Where two headings read alike, the source gives them in different places.",
  "data": [
    {"compound": "COc1ccc2[nH]c([S+]([O-])Cc3ncc(C)c(OC)c3C)nc2c1", "note": "(racemic) [Omeprazole magnesium, 5-methoxy-2-[[(4-methoxy-3,5-dimethyl-2-pyridyl)methyl]sulfinyl]benzimidazole, (RS) magnesium salt (2:1)]", "values": [
      {"measurement": "solubility in methanol", "value": "soluble"},
      {"measurement": "solubility in water", "setting": "water at 25° C.", "value": 250, "unit": "µg/mL"}
    ]},
    {"compound": "CO[C@H]1/C=C/O[C@@]2(C)Oc3c(C)c(O)c4c(c3C2=O)C2=NC3(CCN(CC(C)C)CC3)NC2=C(NC(=O)/C(C)=C\\C=C\\[C@H](C)[C@H](O)[C@@H](C)[C@@H](O)[C@@H](C)[C@H](OC(C)=O)[C@@H]1C)C4=O", "note": "[Rifabutin, (9S,12E,14S,15R,16S,17R,18R,19R,20S,21S,22E,24Z)-6-16,18,20-tetrahydroxy-1′-isobutyl-14-methoxy-7,9,15,17,19,21,25-heptamethylspiro [9,4-(epoxypentadeca[1,11,13]trienimino)-2H-furo[2′,3′:7,8]naphth[1,2-d]imidazole-2,4′-piperidine]-5,10,26-(3H,9H)-trione-16-acetate]", "values": [
      {"measurement": "solubility in chloroform", "setting": "chloroform", "value": "soluble"},
      {"measurement": "solubility in ethanol", "setting": "ethanol", "value": "sparingly soluble"},
      {"measurement": "solubility in methanol", "value": "soluble"},
      {"measurement": "solubility in water", "setting": "water", "value": 190, "unit": "µg/mL"}
    ]}
  ]
}
